pIC50: −log10 of the molar value.

Sequence of human TrkA receptor (P04629 33-796): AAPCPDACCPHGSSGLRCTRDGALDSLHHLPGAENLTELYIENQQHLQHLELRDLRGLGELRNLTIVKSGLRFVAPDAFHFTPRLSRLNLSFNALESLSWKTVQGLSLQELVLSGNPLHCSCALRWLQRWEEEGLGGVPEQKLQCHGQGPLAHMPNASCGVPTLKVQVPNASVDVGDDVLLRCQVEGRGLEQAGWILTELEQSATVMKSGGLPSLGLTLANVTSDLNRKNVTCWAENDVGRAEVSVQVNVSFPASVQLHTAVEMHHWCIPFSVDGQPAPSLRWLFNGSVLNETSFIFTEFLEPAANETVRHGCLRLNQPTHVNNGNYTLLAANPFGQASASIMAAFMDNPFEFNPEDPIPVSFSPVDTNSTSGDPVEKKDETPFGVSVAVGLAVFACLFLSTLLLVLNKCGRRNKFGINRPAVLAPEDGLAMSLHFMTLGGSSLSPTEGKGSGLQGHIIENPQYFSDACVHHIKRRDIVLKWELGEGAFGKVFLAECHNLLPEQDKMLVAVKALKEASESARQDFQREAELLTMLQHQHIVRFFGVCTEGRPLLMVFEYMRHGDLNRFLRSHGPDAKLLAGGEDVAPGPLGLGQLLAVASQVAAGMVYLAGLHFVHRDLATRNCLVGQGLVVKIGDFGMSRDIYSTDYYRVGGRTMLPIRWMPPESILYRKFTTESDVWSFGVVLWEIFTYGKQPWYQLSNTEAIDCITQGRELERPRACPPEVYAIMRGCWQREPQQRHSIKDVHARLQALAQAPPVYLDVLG

In the assay the target is human TrkA receptor (Homo sapiens (Human), UniProt P04629). Nature of the assay: TrkA functional activity, DiscoverX PathHunter assay (NGF-stimulated U2OS cells). In kind it is cell-based. Conditions: U2OS cells expressing human TrkA-Prolink, Shc1-EA and p75NTR; compound 1 h, then NGF (~80% of maximal response) 3 h; luminescence. The protocol:
TrkA functional activity was measured using a DiscoverX PathHunter assay. In this assay, U2OS cells express the human TrkA receptor as a fusion with the weakly complementing fragment of B-galactosidase, which DiscoverX calls “Prolink (PK)”; additionally, Shc1 is fused with a larger fragment, which is called “Enzyme Acceptor (EA)”. Activation of the TrkA receptor, upon NGF addition, results in the kinase domain being phosphorylated, resulting in subsequent recruitment of Shc1-EA protein. That recruitment results in an active B-galactosidase enzyme that is detected by addition of a chemiluminescent substrate. The human p75^NTR protein was also expressed as a co-receptor for NGF.
All reagents were purchased from DiscoverX, except for the receptor agonists (NGF, BDNF, NT3) which were purchased from Peprotech. Cells were expanded and frozen into cryovials, and stored in the vapor phase of liquid nitrogen, and thawed immediately before use. Thawed cells were added to a 384-well plate at 7500 cells/well, and allowed to incubate overnight. Compound at various concentrations was added the following morning and allowed to incubate on cells for 1 h. Then, NGF was added at a concentration sufficient to elicit ˜80% of a maximal response and allowed to incubate for 3 h at ambient temperature. DiscoverX PathHunter detection reagent was then added and the plate was further incubated for 1 h in the dark. The plate was then read via luminescence on the Perkin Elmer Envision.
In turn, `CC(O)c1cnc2c(NC(=O)c3cc(-c4ccccn4)c(C(F)(F)F)cc3F)c(-c3ccccc3)ccn12` (single isomer, unassigned) [Compound 30, (R) or (S)-2-fluoro-N-[3-(1-hydroxyethyl)-7-phenylimidazo[1,2-a]pyridin-8-yl]-5-pyridin-2-yl-4-(trifluoromethyl)benzamide] gave a pIC50 of 9.13.

Take `CC(C)(O)c1cnc2c(NC(=O)c3cc(-c4ncccn4)c(C(F)(F)F)cc3F)c(-c3ccccc3)ccn12` [Compound 11, 2-Fluoro-N-(3-(2-hydroxypropan-2-yl)-7-phenylimidazo[1,2-a]pyridin-8-yl)-5-(pyrimidin-2-yl)-4-(trifluoromethyl)benzamide]: the pIC50 was 8.40.

On to `O=C(Nc1c(-c2ccccc2)ncn2c(CO)cnc12)c1cc(-c2ncccn2)c(C(F)(F)F)cc1F` [Compound 69, 2-Fluoro-N-(3-(hydroxymethyl)-7-phenylimidazo[1,2-c]pyrimidin-8-yl)-5-(pyrimidin-2-yl)-4-(trifluoromethyl)benzamide], for which the pIC50 was 8.19.

Molecule `Cn1ccc(-c2cc(C(=O)Nc3c(-c4ccccc4)ccc4c(CO)cnn34)ccc2C(F)(F)F)n1` [Compound 40, N-[3-(hydroxymethyl)-6-phenylpyrazolo[1,5-a]pyridin-7-yl]-3-(1-methyl-1H-pyrazol-3-yl)-4-(trifluoromethyl)benzamide] showed a pIC50 of 8.85.

For the molecule `CC(O)c1cnc2c(NC(=O)c3cc(-c4ncccn4)c(C(F)(F)F)cc3F)c(-c3ccccc3)ccn12` (single isomer, unassigned) [Compound 9, (R) or (S)-2-Fluoro-N-(3-(1-hydroxyethyl)-7-phenylimidazo[1,2-a]pyridin-8-yl)-5-(pyrimidin-2-yl)-4-(trifluoromethyl)benzamide], the pIC50 is 8.48.

For `O=C(Nc1c(-c2ccccc2)ccc2c(CO)cnn12)c1cc(-c2ncccn2)c(C(F)(F)F)cc1F` [Compound 41, 2-fluoro-N-[3-(hydroxymethyl)-6-phenylpyrazolo[1,5-a]pyridin-7-yl]-5-pyrimidin-2-yl-4-(trifluoromethyl)benzamide], the pIC50 is 8.68.

As to `CC(C)(O)c1cnn2c(NC(=O)c3cc(-c4ncccn4)c(C(F)(F)F)cc3F)c(-c3ccccc3)ccc12` [Compound 38, 2-fluoro-N-[3-(1-hydroxy-1-methylethyl)-6-phenylpyrazolo[1,5-a]pyridin-7-yl]-5-pyrimidin-2-yl-4-(trifluoromethyl)benzamide], the pIC50 is 8.74.

In turn, `Cn1ccc(-c2cc(C(=O)Nc3c(-c4ccccc4)ccc4cc(C(C)(C)O)[nH]c34)ccc2C(F)(F)F)n1` [Compound 42, N-(2-(2-Hydroxypropan-2-yl)-6-phenyl-1H-indol-7-yl)-3-(1-methyl-1H-pyrazol-3-yl)-4-(trifluoromethyl)benzamide] gave a pIC50 of 9.18.

`Cn1ccc(-c2cc(C(=O)Nc3cn4cncc4nc3-c3ccccc3)c(F)cc2C(F)(F)F)n1` [Compound 64, 2-Fluoro-5-(1-methyl-1H-pyrazol-3-yl)-N-(2-phenylimidazo[1,5-a]pyrimidin-3-yl)-4-(trifluoromethyl)benzamide] showed a pIC50 of 8.26.

Regarding `CC(O)c1cnc2c(NC(=O)c3cc(-c4ncccn4)c(C(F)(F)F)cc3F)c(-c3ccc(F)cc3)ccn12` (single isomer, unassigned) [Compound 53, (R) or (S)-2-fluoro-N-[7-(4-fluorophenyl)-3-(1-hydroxyethyl)imidazo[1,2-a]pyridin-8-yl]-5-pyrimidin-2-yl-4-(trifluoromethyl)benzamide], the pIC50 is 7.54.

In turn, `Cn1ccc(-c2cc(C(=O)Nc3c(-c4ccccc4)ccn4c(C(N)=O)cnc34)c(F)cc2C(F)(F)F)n1` [Compound 22, 8-({[2-fluoro-5-(1-methyl-1H-pyrazol-3-yl)-4-(trifluoromethyl)phenyl]carbonyl}amino)-7-phenylimidazo[1,2-a]pyridine-3-carboxamide] showed a pIC50 of 9.29.

As for `CC(O)c1n[nH]c2c(NC(=O)c3cc(-c4ncccn4)c(C(F)(F)F)cc3F)c(-c3ccccc3)ccc12` (racemic) [Compound 47, (R) and (S)-2-Fluoro-N-(3-(1-hydroxyethyl)-6-phenyl-1H-indazol-7-yl)-5-(pyrimidin-2-yl)-4-(trifluoromethyl)benzamide], the pIC50 is 8.35.

The molecule `CC(C)(O)c1cc2cc(-c3ccccc3)c(NC(=O)c3cc(-c4ncccn4)c(C(F)(F)F)cc3F)cc2[nH]1` [Compound 44, 2-Fluoro-N-(2-(2-hydroxypropan-2-yl)-5-phenyl-1H-indol-6-yl)-5-(pyrimidin-2-yl)-4-(trifluoromethyl)benzamide] had a pIC50 of 7.02.

Consider `CC(O)c1cnc2c(NC(=O)c3cc(-c4ccn(C)n4)c(C(F)(F)F)cc3F)c(-c3ccccc3)ccn12` (single isomer, unassigned) [Compound 25, (R) or (S)-2-fluoro-N-[3-(1-hydroxyethyl)-7-phenylimidazo[1,2-a]pyridin-8-yl]-5-(1-methyl-1H-pyrazol-3-yl)-4-(trifluoromethyl)benzamide], for which the pIC50 was 9.09.

With `Cn1ccc(-c2cc(C(=O)Nc3c(-c4ccccc4)ccn4c(CO)cnc34)c(F)cc2C(F)(F)F)n1` [Compound 23, 2-fluoro-N-[3-(hydroxymethyl)-7-phenylimidazo[1,2-a]pyridin-8-yl]-5-(1-methyl-1H-pyrazol-3-yl)-4-(trifluoromethyl)benzamide], the pIC50 was 9.28.

Consider `Cn1ccc(-c2cc(C(=O)Nc3c(-c4ccccc4)ccn4c(C(N)=O)cnc34)sc2C(F)(F)F)n1` [Compound 67, 8-(4-(1-Methyl-1H-pyrazol-3-yl)-5-(trifluoromethyl)thiophene-2-carboxamido)-7-phenylimidazo[1,2-a]pyridine-3-carboxamide], for which the pIC50 was 7.25.

In turn, `Cn1ccc(-c2cc(C(=O)Nc3c(-c4ccccc4)ncn4c(CO)cnc34)c(F)cc2C(F)(F)F)n1` [Compound 70, 2-Fluoro-N-(3-(hydroxymethyl)-7-phenylimidazo[1,2-c]pyrimidin-8-yl)-5-(1-methyl-1H-pyrazol-3-yl)-4-(trifluoromethyl)benzamide] gave a pIC50 of 8.92.

In turn, `Cn1ccc(-c2cc(C(=O)Nc3c(-c4ccccc4)ccn4c(C(C)(C)O)cnc34)c(Cl)cc2C(F)(F)F)n1` [Compound 17, 2-chloro-N-[3-(1-hydroxy-1-methylethyl)-7-phenylimidazo[1,2-a]pyridin-8-yl]-5-(1-methyl-1H-pyrazol-3-yl)-4-(trifluoromethyl)benzamide] showed a pIC50 of 8.96.

Molecule `CC(C)(O)c1cnc2c(NC(=O)c3cc(-c4ncccn4)c(C(F)(F)F)cc3Cl)c(-c3ccccc3)ccn12` [Compound 20, 2-chloro-N-[3-(1-hydroxy-1-methylethyl)-7-phenylimidazo[1,2-a]pyridin-8-yl]-5-pyrimidin-2-yl-4-(trifluoromethyl)benzamide] gave a pIC50 of 7.80.

Regarding `CC(C)(O)c1cnc2c(NC(=O)c3cc(-c4ncccn4)c(C(F)(F)F)cc3F)c(-c3cccc(CO)c3)ccn12` [Compound 57, 2-Fluoro-N-(7-(3-(hydroxymethyl)phenyl)-3-(2-hydroxypropan-2-yl)imidazo[1,2-a]pyridin-8-yl)-5-(pyrimidin-2-yl)-4-(trifluoromethyl)benzamide], the pIC50 is 6.70.

The record behind these values is patent US10556900B2, “TrkA kinase inhibitors, compositions and methods thereof” (Merck Sharp & Dohme Corp., priority 2015, dated 2020).
